Experimental data reported in ChEMBL document CHEMBL1201862, “PubChem BioAssay data set” (2004).
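Protocol summary: plate cells (96-well), add compound at 5 concentrations, incubate 48 h, interpolate endpoints linearly. Here, GI50 denotes the concentration required for 50% inhibition of growth.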 Active and inactive are the calls of the source. No stated cut-off is given here; in the data, active = GI50 up to about 1.1 µM and inactive = higher.

Columns and labels:
Test in all cases: NCI anticancer screen, dose series, 48 h
M14 = system: M14
SK-MEL-28 = system: SK-MEL-28
COLO 205 = system: COLO 205
RXF 393 = system: RXF 393
T47D = system: T47D
BT-549 = system: BT-549
MDA-N = system: MDA-N
SW-620 = system: SW-620
UACC-257 = system: UACC-257
NCI-H226 = system: NCI-H226
SN12C = system: SN12C
Hs-578T = system: Hs-578T
CAKI-1 = system: CAKI-1
TK-10 = system: TK-10
KM12 = system: KM12
HCT-15 = system: HCT-15
OVCAR-8 = system: OVCAR-8
SK-OV-3 = system: SK-OV-3
OVCAR-3 = system: OVCAR-3

Structure (SMILES)	GI50 (M14)	GI50 (SK-MEL-28)	GI50 (COLO 205)	GI50 (RXF 393)	GI50 (T47D)	GI50 (BT-549)	GI50 (MDA-N)	GI50 (SW-620)	GI50 (UACC-257)	GI50 (NCI-H226)	GI50 (SN12C)	GI50 (Hs-578T)	GI50 (CAKI-1)	GI50 (TK-10)	GI50 (KM12)	GI50 (HCT-15) [µM]	GI50 (OVCAR-8)	GI50 (SK-OV-3)	GI50 (OVCAR-3)
O=C1CSC2(CC(/C=C/c3ccccc3[N+](=O)[O-])=NN2c2cccc(S(=O)(=O)O)c2)N1c1nc2ccccc2s1 (stereo not drawn)	20.7 µM (inactive)	38 µM (inactive)	33.1 µM (inactive)	23.8 µM (inactive)	12.8 µM (inactive)	17.3 µM (inactive)	17.9 µM (inactive)	22.6 µM (inactive)	37.2 µM (inactive)	16.8 µM (inactive)	20.3 µM (inactive)	22.3 µM (inactive)	32.7 µM (inactive)	15.1 µM (inactive)	15.5 µM (inactive)	17	15.3 µM (inactive)	–	–
CC1=NC2(CCCCC2)N(Cl)C(=O)C1SC#N (stereo not drawn)	16.2 µM (inactive)	18 µM (inactive)	63.1 µM (inactive)	18.3 µM (inactive)	21.6 µM (inactive)	14.4 µM (inactive)	15.8 µM (inactive)	12.8 µM (inactive)	–	24 µM (inactive)	19.4 µM (inactive)	41 µM (inactive)	–	20.3 µM (inactive)	21.4 µM (inactive)	23.8	17.9 µM (inactive)	> 10 µM (inactive)	19.6 µM (inactive)
CCO/C(Cc1ccc(Cl)cc1)=N/NC(N)=S	> 100 µM (inactive)	> 100 µM (inactive)	> 100 µM (inactive)	–	27.8 µM (inactive)	> 100 µM (inactive)	> 100 µM (inactive)	> 100 µM (inactive)	> 100 µM (inactive)	> 100 µM (inactive)	> 100 µM (inactive)	> 100 µM (inactive)	> 100 µM (inactive)	> 100 µM (inactive)	> 100 µM (inactive)	> 100	> 100 µM (inactive)	> 100 µM (inactive)	> 100 µM (inactive)
CC(=O)OC[C@@H](OC(C)=O)[C@H](OC(C)=O)[C@@H]1OC(C)(C)O[C@@H]1C1SCCCS1	> 100 µM (inactive)	> 100 µM (inactive)	> 100 µM (inactive)	> 100 µM (inactive)	> 100 µM (inactive)	> 100 µM (inactive)	> 100 µM (inactive)	> 100 µM (inactive)	> 100 µM (inactive)	–	–	> 100 µM (inactive)	> 100 µM (inactive)	> 100 µM (inactive)	> 100 µM (inactive)	–	> 100 µM (inactive)	> 100 µM (inactive)	> 100 µM (inactive)
CC1CC[C@@]2(OC1)OC1C[C@H]3[C@@H]4C/C(=N\N(C)C)[C@@]5(O)CC(O)CC[C@]5(C)[C@H]4CC[C@]3(C)C1[C@@H]2C (stereo partly drawn)	> 100 µM (inactive)	> 100 µM (inactive)	43.9 µM (inactive)	22.9 µM (inactive)	31.5 µM (inactive)	51.2 µM (inactive)	23.3 µM (inactive)	55.8 µM (inactive)	67.5 µM (inactive)	> 100 µM (inactive)	43.1 µM (inactive)	33.3 µM (inactive)	–	48.9 µM (inactive)	29.3 µM (inactive)	67.1	–	76.6 µM (inactive)	43.9 µM (inactive)
CC(C)(C)OC(=O)N(O)CCCn1cnc2c(N)ncnc21	> 100 µM (inactive)	> 100 µM (inactive)	> 100 µM (inactive)	> 100 µM (inactive)	> 100 µM (inactive)	> 100 µM (inactive)	> 100 µM (inactive)	> 100 µM (inactive)	> 100 µM (inactive)	> 100 µM (inactive)	> 100 µM (inactive)	> 100 µM (inactive)	–	> 100 µM (inactive)	> 100 µM (inactive)	> 100	> 100 µM (inactive)	> 100 µM (inactive)	> 100 µM (inactive)
CC(C)(C)OC(=O)Nc1cc(-c2ccccc2)co1	> 100 µM (inactive)	> 100 µM (inactive)	> 100 µM (inactive)	–	38.4 µM (inactive)	79.8 µM (inactive)	86.3 µM (inactive)	> 100 µM (inactive)	> 100 µM (inactive)	> 100 µM (inactive)	95.9 µM (inactive)	–	> 100 µM (inactive)	> 100 µM (inactive)	> 100 µM (inactive)	> 100	> 100 µM (inactive)	> 100 µM (inactive)	94.2 µM (inactive)
O=c1[nH]c(=S)[nH]cc1CN1CCOCC1	> 100 µM (inactive)	> 100 µM (inactive)	> 100 µM (inactive)	> 100 µM (inactive)	> 100 µM (inactive)	> 100 µM (inactive)	> 100 µM (inactive)	> 100 µM (inactive)	> 100 µM (inactive)	–	> 100 µM (inactive)	> 100 µM (inactive)	> 100 µM (inactive)	> 100 µM (inactive)	> 100 µM (inactive)	> 100	> 100 µM (inactive)	> 100 µM (inactive)	> 100 µM (inactive)
